Measured values as given in article PMC7835231, “Human organoid biofilm model for assessing antibiofilm activity of novel agents” (NPJ Biofilms and Microbiomes, 2021).
“Also recorded” adds a separate entry of the source.

What was measured:
PAO1-lux biofilm = test: One-day or three-day PAO1-lux biofilm on N/TERT epidermal skin model, CFU count and luminescence; type: cell-based, Pseudomonas aeruginosa; conditions: for antibiofilm activity (CFU recovered) against pre-established PAO1-lux biofilm: peptide 0.1% topical, 4 h, 5 to 6 biological replicates, Kruskal–Wallis, Dunn's test versus control
From the text: (§1) Bacterial strains used in this study include USA300-LAC[56] (referred to as MRSA), and a luminescent MRSA strain SAP149[57] (referred to as MRSA-lux), Pseudomonas aeruginosa strain PAO1[58] and a luminescent strain of P. aeruginosa[59] (PAO1-lux). Bacteria strains used for confocal microscopy imaging include S. aureus USA300-LAC transformed with a pKK22 plasmid expressing a far-red fluorescent protein (MRSA-FarRed), as well as P. aeruginosa PAO1 (PAO1-mCherry), transformed with an mCherry expressing plasmid, pMCh-23[60]. All S. aureus strains were grown overnight in TSB containing 1% D-glucose at 37 °C with shaking at 180 rpm, sub-cultured to mid-exponential growth phase in TSB 1% D-glucose. Bacteria were harvested and resuspended in sterile PBS to a concentration of 2 × 10^8 CFU/ml before seeding onto skin surface. All P. aeruginosa strains were grown in LB under the same conditions as mentioned above, subcultured in LB medium, and resuspended in PBS at 2 × 10^8 CFU/ml before seeding.
(§2) Skin models were established using a modification of described methods. Briefly, 3 × 10^5 N/TERT cells in 400 μl DermaLife K Keratinocyte Complete Medium with LifeFactors (5 μg/ml rh Insulin LifeFactor, 6 mM L-Glutamine LifeFactor, 1 μM Epinephrine LifeFactor, 5 μg/ml Apo-Transferrin LifeFactor, 0.5 ng/ml rh TGF-α LifeFactor, 0.4% Extract P LifeFactor, 100 ng/ml Hydrocortisone Hemisuccinate LifeFactor) were seeded onto each filter insert (ThinCert™ Cell culture insert, Greiner bio-one, Kremsmünster, Austria) in a 12-well ThinCert™ Plate (Greiner bio-one) holding 4.1 ml/well DermaLife K Keratinocyte Complete Medium with LifeFactors below each filter. Medium was refreshed every second day until N/TERT cells reached confluency in 3-4 days. Culture media both on top and below the filter were then switched to DMEM/Ham’s F-12/CnT-Prime 3D Barrier Media in a 3:1:4 ratio supplemented with 0.1 μg/ml hydrocortisone, 0.125 μg/ml isoproterenol, 0.25 μg/ml bovine insulin, 26.5 pM selenious acid, 5 mM L-serine, 5 μM L-carnitine, 1.6 mg/ml BSA, 25 μM palmitic acid, 15 μM linoleic acid and 7 μM arachidonic acid. Medium on top of the filters was removed the next day to allow air-exposure, which induced differentiation and stratification of the epidermis. After 2–3 days, linoleic acid concentration was increased to 30 μM. The skin samples were cultured for 10 days at air–liquid interface at 37 °C and 7.3% CO2 with medium being refreshed every 2–3 days.
(§3) One million MRSA or PAO1, or luminescent MRSA-lux or PAO1-lux, or fluorescently-tagged MRSA-FarRed or PAO1-mCherry resuspended in PBS were seeded (5 μl of 2 × 10^8 CFU/ml) in the center of the skin model, cultured at 37 °C and 7.3% CO2 to allow the establishment of bacterial biofilms. One day or three days after inoculation, 30 μl of 0.1% (1 mg/ml) or 0.4% (4 mg/ml) DJK-5 peptide was added on top of the biofilm for 4 h. […] To visualize biofilms, skin samples seeded with luminescent bacteria were imaged using the ChemiDoc Imaging System (Bio-Rad). To quantify bacterial counts, skin samples, together with the filter inserts, were excised using a disposable scalpel (VWR, Radnor, PA), sonicated in 1.5 ml PBS, vortexed, serially diluted, and plated on LB agar plates. The cut-off of the Y-axis in each figure indicates the detection limit of CFU count while bars indicate the geometric mean of recovered CFU.

[1] = test system: MRSA-lux (MRSA SAP149) biofilm; test: One-day or three-day MRSA-lux biofilm on N/TERT epidermal skin model, CFU count and luminescence; type: cell-based, Staphylococcus aureus; conditions: for antibiofilm activity (CFU recovered) against pre-established MRSA-lux biofilm: peptide 0.1% topical, 5 to 6 biological replicates, Kruskal–Wallis, Dunn's test versus control; for geometric mean of MRSA-lux bacteria recovered: untreated 1.3 × 10^8 CFU/skin, geometric mean of 3 to 9 biological replicates
From the text: as §1, §2, §3

IL-1β production = test: IL-1β ELISA of culture supernatant, MRSA-infected burned skin; type: cell-based, human
Method: (§4) Thermal damage was created by burning 10-day air–liquid interface skins at 100 °C for 4 s with a digital soldering iron (FX888D, American Hakko Products, Inc., Santa Clarita, CA). The skin filter inserts were transferred to 12-well plates (Sigma-Aldrich) containing 800 μl/well fresh culture medium prior to bacterial infection. MRSA biofilm was established by seeding 2 × 10^6 CFU in 5 μl PBS on top of the thermal damaged skin and cultured at 37 °C and 5% CO2 for 24 h. DJK-5 peptide (30 μl of 0.4%) alone or in combination with 0.01%, 0.1%, or 0.4% 1002 was administered on top of the pre-formed biofilm. Skin samples were collected 24 h post peptide treatment for colony count.
(§5) At the time of colony quantification, culture supernatants below the skin filter inserts were harvested for measuring cytotoxicity by the lactate dehydrogenase assay using a Cytotoxicity Detection Kit (Roche Diagnostics, Basel, Switzerland), according to the manufacturer’s instructions. Untreated skin samples or skin samples treated with 5% Triton X-100 were used as negative (0% toxicity) or positive (100% toxicity) control, respectively. Culture supernatants were also used to measure IL-1β and IL-8 production using ELISA kits from eBioscience (San Diego, CA).

N/TERT epidermal skin [2] = type: cell-based, human
Method: as §4, §5

[3] = test system: MRSA (USA300-LAC) biofilm on burned skin; test: MRSA USA300 thermal wounding skin model, colony count; type: cell-based, Staphylococcus aureus
Method: as §3
Thermal damage was created by burning 10-day air–liquid interface skins at 100 °C for 4 s with a digital soldering iron (FX888D, American Hakko Products, Inc., Santa Clarita, CA). The skin filter inserts were transferred to 12-well plates (Sigma-Aldrich) containing 800 μl/well fresh culture medium prior to bacterial infection. MRSA biofilm was established by seeding 2 × 10^6 CFU in 5 μl PBS on top of the thermal damaged skin and cultured at 37 °C and 5% CO2 for 24 h. […]

[4] = test system: P. aeruginosa PAO1 biofilm; test: One-day PAO1 biofilm on N/TERT epidermal skin model, CFU count; type: cell-based, Pseudomonas aeruginosa; conditions: 1-day biofilm; 0.4% (120 µg) DJK-5, 4 h; control 1.3 × 10^8 CFU/skin; geometric mean of 5 to 8 biological replicates
From the text: as §1, with “All P. aeruginosa strains were grown in LB under the same conditions as mentioned above, subcultured in LB medium, and resuspended in PBS at 2 × 10^8 CFU/ml before seeding.” left out
One million MRSA or PAO1, or luminescent MRSA-lux or PAO1-lux, or fluorescently-tagged MRSA-FarRed or PAO1-mCherry resuspended in PBS were seeded (5 μl of 2 × 10^8 CFU/ml) in the center of the skin model, cultured at 37 °C and 7.3% CO2 to allow the establishment of bacterial biofilms. […] To quantify bacterial counts, skin samples, together with the filter inserts, were excised using a disposable scalpel (VWR, Radnor, PA), sonicated in 1.5 ml PBS, vortexed, serially diluted, and plated on LB agar plates. […]

IL-8 production [5] = test: IL-8 ELISA of culture supernatant, MRSA-infected burned skin; type: cell-based, human; conditions: burned skin with MRSA biofilm; 0.4% DJK-5, 24 h; ELISA of media below filter
Method: as §4, §5

N/TERT epidermal skin [6] = type: cell-based, human; remark: listed apart in the source
From the text: (§6) At the time of colony quantification, culture supernatants below the skin filter inserts were harvested for measuring cytotoxicity by the lactate dehydrogenase assay using a Cytotoxicity Detection Kit (Roche Diagnostics, Basel, Switzerland), according to the manufacturer’s instructions. Untreated skin samples or skin samples treated with 5% Triton X-100 were used as negative (0% toxicity) or positive (100% toxicity) control, respectively. Culture supernatants were also used to measure IL-1β and IL-8 production using ELISA kits from eBioscience (San Diego, CA). […]
(§7) Supplementary Fig 4. Burned skin without infection and 2-day biofilm on skin without thermal damage had minimal changes in cytotoxicity and cytokine production compared to skin control without infection and thermal damage.
(§8) Thermally damaged epidermal skin was mock infected with PBS for 24 hours, followed by 24 hours treatment with 0.4% DJK-5 or water (a, b). The cytotoxicity (a) and IL-8 production (b) from culture supernatant beneath skin was determined. One day pre-established MRSA-lux and PAO1-lux skin biofilm was treated with vehicle control-water for 24 hours, changes in luminescence signal (c), bacteria load (d), skin cytotoxicity (e) and IL-8 level (f) was quantified. Error bars indicate mean with SD (n=3). One-way ANOVA, Dunnett’s multiple comparisons test (* P ≤ 0.05; ** P ≤ 0.01). […]

IL-8 production [7] = type: cell-based, human
From the text: as §6, §7, §8

KRIRWVILWRQV [RI-1002, synthetic host defense peptide]
antibiofilm activity (CFU recovered) against pre-established PAO1-lux biofilm (PAO1-lux biofilm; 1-day biofilm): comparable antibiofilm activity against MRSA-lux and PAO1-lux | antibiofilm activity (CFU recovered) against pre-established MRSA-lux biofilm ([1]; 1-day biofilm, 4 h): comparable antibiofilm activity against MRSA-lux and PAO1-lux

VRLIVAVRIWRR [compound 1018, synthetic host defense peptide]
antibiofilm activity (CFU recovered) against pre-established MRSA-lux biofilm ([1]; 1-day biofilm, 4 h): superior effects in eradicating MRSA-lux biofilms; also recorded: superior activity in eradicating MRSA biofilm

C/C(=C\C(=O)OCCCCCCCCC(=O)O)C[C@@H]1OC[C@H](C[C@@H]2O[C@H]2[C@@H](C)[C@H](C)O)[C@@H](O)[C@H]1O [mupirocin, reference compound]
bacterial load of MRSA-lux in the biofilm ([1]; 1-day biofilm, 1% mupirocin dissolved in 10% DMSO, topical, 4 h): did not have appreciable impact; also recorded: almost inactive

VQRWLIVWRIRK [compound 1002, Innate defense regulator peptide, a bactenecin derivative; anti-inflammatory synthetic HDP]
antibiofilm activity (CFU recovered) against pre-established PAO1-lux biofilm (PAO1-lux biofilm; 1-day biofilm): All of the peptides except 1002 significantly reduced | pro-inflammatory IL-1β release from MRSA infected burned skin (IL-1β production; 1002 treatment alone, 24 h, ELISA): significant decreases | cytotoxicity from MRSA infected burned skin (N/TERT epidermal skin [2]): significant decreases | antibiofilm activity (CFU recovered) against pre-established MRSA-lux biofilm ([1]; 1-day biofilm, 4 h): All of the peptides except 1002 significantly reduced | reduction in bacterial count compared to untreated biofilms ([3]; burned skin with MRSA biofilm, 0.4% 1002 alone, 24 h): 17 fold

RRWIRVAVILRV [RI-1018, synthetic host defense peptide]
antibiofilm activity (CFU recovered) against pre-established PAO1-lux biofilm (PAO1-lux biofilm; 1-day biofilm): comparable antibiofilm activity against MRSA-lux and PAO1-lux | antibiofilm activity (CFU recovered) against pre-established MRSA-lux biofilm ([1]; 1-day biofilm, 4 h): comparable antibiofilm activity against MRSA-lux and PAO1-lux

VQWRRIRVWVIR [DJK-6, synthetic host defense peptide]
antibiofilm activity (CFU recovered) against pre-established MRSA-lux biofilm ([1]; 1-day biofilm, 4 h): superior effects in eradicating MRSA-lux biofilms; also recorded: superior activity in eradicating MRSA biofilm

VQWRAIRVRVIR [DJK-5, D-enantiomeric antibiofilm synthetic host defense peptide]
geometric mean of recovered PAO1-lux bacteria (PAO1-lux biofilm; 1-day biofilm, 0.4% (120 µg) DJK-5, 4 h, control 8.9 × 10^7 CFU/skin, geometric mean of 5 to 8 biological replicates): 1.9 × 10^2 CFU/skin | luminescence of PAO1-lux biofilm (PAO1-lux biofilm; 1-day biofilm, 0.4% DJK-5, 4 h): evident reduction in the luminescence signal | antibiofilm activity (CFU recovered) against pre-established PAO1-lux biofilm (PAO1-lux biofilm; 1-day biofilm): comparable antibiofilm activity against MRSA-lux and PAO1-lux | bacterial burden (colony count) (PAO1-lux biofilm; 3-day PAO1-lux biofilm, 0.4% DJK-5, 4 h): significantly decreased bacterial burden | luminescence of PAO1-lux biofilm (PAO1-lux biofilm; 3-day biofilm, 0.4% DJK-5, 4 h): wiped out luminescence signal | geometric mean of recovered non-luminescent PAO1 bacteria [4]: 4.9 × 10^3 CFU/skin | IL-1β production (IL-1β production; burned skin with MRSA biofilm, 0.4% DJK-5, 24 h, ELISA of media below filter): significantly suppressed | IL-8 production (IL-8 production [5]): significantly suppressed | increase in observed cytotoxicity compared to control skin (N/TERT epidermal skin [6]): ~ 5% | IL-8 production compared to control skin (IL-8 production [7]): slightly increased IL-8 production | luminescence of MRSA-lux biofilm ([1]; 1-day biofilm, 0.1% (30 μg total peptide), 4 h, ChemiDoc imaging): reduced the area of colonization | geometric mean of MRSA-lux bacteria recovered ([1]; 1-day biofilm, 0.1% DJK-5 (30 μg) topical, 4 h): 1.6 × 10^6 CFU/skin | luminescence of MRSA-lux biofilm ([1]; 1-day biofilm, 0.4% (120 μg), 4 h, ChemiDoc imaging): completely abolished the luminescence | geometric mean of MRSA-lux bacteria recovered ([1]; 1-day biofilm, 0.4% DJK-5 (120 μg) topical, 4 h): 2.1 × 10^4 CFU/skin | antibiofilm activity (CFU recovered) against pre-established MRSA-lux biofilm ([1]; 1-day biofilm, 4 h): comparable antibiofilm activity against MRSA-lux and PAO1-lux; also recorded: superior activity in eradicating MRSA biofilm | reduction of bacterial load ([1]; 3-day MRSA-lux biofilm, 0.4% DJK-5, within 4 h of treatment, versus untreated): 4 log orders of magnitude | luminescence of MRSA-lux biofilm ([1]; 3-day biofilm, 0.4% DJK-5, 4 h): successfully wiped out the bacterial luminescence | bacterial load on burned skin ([3]; skin burned 100 °C 4 s, 24 h MRSA biofilm, 0.4% DJK-5 (120 μg) in PBS topical, control 7.8 × 10^8 CFU/skin, geometric mean): 3.2 × 10^5 CFU/skin
